Laboratory results as given in patent US9561228B2 (Celgene Avilomics Research, Inc., priority 2013, dated 2017).

Columns and labels:
[1] = system: HCT116 cells (colorectal carcinoma); test: Inhibition of cancer cell proliferation, HCT116 (CellTiterGlo, 72 hours); format: cell-based; details: Homo sapiens, HCT-116
Summary of the method: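 3000 cells per well exposed to 3-fold serial compound dilutions from 5,000 nM (two-fold solution, stock level) for 72 hours at 37° C. CellTiterGlo luminescence converted to cell number via a standard curve; percent inhibition vs untreated wells, GI50 by curve fit.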

[2] = system: HT-29 cells (colorectal adenocarcinoma); test: Inhibition of cancer cell proliferation, HT-29 (CellTiterGlo, 72 hours); format: cell-based; details: Homo sapiens
Summary of the method: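 HT-29 cells seeded at 3000/well, then treated with 3-fold serial dilutions from a 5,000 nM two-fold solution in serum-free RPMI1640, untreated wells as control, for 72 h at 37° C. CellTiterGlo luminescence converted to cell number via a standard curve; GI50 from percent inhibition versus untreated growth.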

| SMILES | GI50 [1] | GI50 [2] |
| --- | --- | --- |
| C=CC(=O)Nc1cc(C)ccc1Nc1nc(Nc2nc(OC)ncc2F)ncc1C(F)(F)F [Compound I-357, N-(2-((2-((5-fluoro-2-methoxypyrimidin-4-yl)amino)-5-(trifluoromethyl)pyrimidin-4-yl)amino)-5-methylphenyl)acrylamide] | 0.501 to 0.999 µM | < 0.1 µM |
| C=CC(=O)Nc1cc(C)ccc1Nc1nc(Nc2ncc(F)c(OC)n2)ncc1C(F)(F)F [Compound I-356, N-(2-((2-((5-fluoro-4-methoxypyrimidin-2-yl)amino)-5-(trifluoromethyl)pyrimidin-4-yl)amino)-5-methylphenyl)acrylamide] | > 1 µM | 0.501 to 0.999 µM |
| C=CC(=O)Nc1cc(C)ccc1Nc1nc(Nc2nc(OC)ncc2C)ncc1C(F)(F)F [Compound I-347, N-(2-((2-((2-methoxy-5-methylpyrimidin-4-yl)amino)-5-(trifluoromethyl)pyrimidin-4-yl)amino)-5-methylphenyl)acrylamide] | 0.501 to 0.999 µM | 0.101 to 0.5 µM |
| C=CC(=O)Nc1cc(C)ccc1Nc1nc(Nc2cc(OC)cnc2Cl)ncc1C(F)(F)F [Compound I-361, N-(2-((2-((2-chloro-5-methoxypyridin-3-yl)amino)-5-(trifluoromethyl)pyrimidin-4-yl)amino)-5-methylphenyl)acrylamide] | 0.501 to 0.999 µM | 0.101 to 0.5 µM |
| C=CC(=O)Nc1cc(CCC(N)=O)ccc1Nc1nc(Nc2cc(OC)ncc2C)ncc1C(F)(F)F [Compound I-400, N-(5-(3-amino-3-oxopropyl)-2-((2-((2-methoxy-5-methylpyridin-4-yl)amino)-5-(trifluoromethyl)pyrimidin-4-yl)amino)phenyl)acrylamide] | 0.501 to 0.999 µM | 0.101 to 0.5 µM |
| C=CC(=O)Nc1ccccc1Nc1nc(Nc2cc(OC)nc(N3CCN(C(C)=O)CC3)c2)ncc1C(F)(F)F [Compound I-92] | < 0.1 µM | < 0.1 µM |
| C=CC(=O)Nc1cc(C)ccc1Nc1nc(Nc2nc(OC)ncc2Cl)ncc1C(F)(F)F [Compound I-344, N-(2-((2-((5-chloro-2-methoxypyrimidin-4-yl)amino)-5-(trifluoromethyl)pyrimidin-4-yl)amino)-5-methylphenyl)acrylamide] | 0.501 to 0.999 µM | 0.101 to 0.5 µM |
| C=CC(=O)Nc1cc(C)ccc1Nc1nc(Nc2cc(OC)nc(N3CCN(C(C)=O)CC3)c2)ncc1C(F)(F)F [Compound I-93, N-(2-((2-((2-(4-Acetylpiperazin-1-yl)-6-methoxypyridin-4-yl)amino)-5-(trifluoromethyl)pyrimidin-4-yl)amino)-5-methylphenyl)acrylamide] | < 0.1 µM | < 0.1 µM |
| C=CC(=O)Nc1cc(C)ccc1Nc1nc(Nc2nc(OC)ncc2C#N)ncc1C(F)(F)F [Compound I-346, N-(2-((2-((5-cyano-2-methoxypyrimidin-4-yl)amino)-5-(trifluoromethyl)pyrimidin-4-yl)amino)-5-methylphenyl)acrylamide] | 0.501 to 0.999 µM | 0.101 to 0.5 µM |
| C=CC(=O)Nc1cc(C)c(F)cc1Nc1nc(Nc2nc(OC)ncc2C)ncc1C(F)(F)F [Compound I-377, N-(4-fluoro-2-((2-((2-methoxy-5-methylpyrimidin-4-yl)amino)-5-(trifluoromethyl)pyrimidin-4-yl)amino)-5-methylphenyl)acrylamide] | > 1 µM | < 0.1 µM |
| C=CC(=O)Nc1cc(C)ccc1Nc1nc(Nc2cc(NCCOC)nc(OC)c2)ncc1C(F)(F)F [Compound I-294, N-(2-((2-((2-methoxy-6-((2-methoxyethyl)amino)pyridin-4-yl)amino)-5-(trifluoromethyl)pyrimidin-4-yl)amino)-5-methylphenyl)acrylamide] | < 0.1 µM | < 0.1 µM |
| C=CC(=O)Nc1cc(C)ccc1Nc1nc(Nc2cc(OCCO)ncc2C)ncc1C(F)(F)F [Compound I-376, N-(2-((2-((2-(2-hydroxyethoxy)-5-methylpyridin-4-yl)amino)-5-(trifluoromethyl)pyrimidin-4-yl)amino)-5-methylphenyl)acrylamide] | 0.501 to 0.999 µM | 0.101 to 0.5 µM |

Now from value to compound:

| GI50 [1] | GI50 [2] | SMILES |
| --- | --- | --- |
| 0.101 to 0.5 µM | < 0.1 µM | C=CC(=O)Nc1cc(CN2CCN(S(C)(=O)=O)CC2)ccc1Nc1nc(Nc2cc(OC)ncc2C)ncc1C(F)(F)F [Compound I-384, N-(2-((2-((2-methoxy-5-methylpyridin-4-yl)amino)-5-(trifluoromethyl)pyrimidin-4-yl)amino)-5-((4-(methylsulfonyl)piperazin-1-yl)methyl)phenyl)acrylamide] |
| 0.501 to 0.999 µM | 0.101 to 0.5 µM | C=CC(=O)Nc1cc(C)ccc1Nc1nc(Nc2ncc(C(F)(F)F)c(OC)n2)ncc1C(F)(F)F [Compound I-354, N-(2-((2-((4-methoxy-5-(trifluoromethyl)pyrimidin-2-yl)amino)-5-(trifluoromethyl)pyrimidin-4-yl)amino)-5-methylphenyl)acrylamide] |
| 0.101 to 0.5 µM | < 0.1 µM | C=CC(=O)Nc1cc(OCC(N)=O)ccc1Nc1nc(Nc2cc(OC)ncc2C)ncc1C(F)(F)F [Compound I-398, N-(5-(2-amino-2-oxoethoxy)-2-((2-((2-methoxy-5-methylpyridin-4-yl)amino)-5-(trifluoromethyl)pyrimidin-4-yl)amino)phenyl)acrylamide] |
| 0.101 to 0.5 µM | < 0.1 µM | C=CC(=O)Nc1ccccc1Nc1nc(Nc2cc(OC)ncc2C)ncc1C(F)(F)F [Compound I-85, N-(2-((2-((2-Methoxy-5-methylpyridin-4-yl)amino)-5-(trifluoromethyl)pyrimidin-4-yl)amino)phenyl)acrylamide] |
| 0.101 to 0.5 µM | 0.101 to 0.5 µM | C=CC(=O)Nc1cc(C)ccc1Nc1nc(Nc2nc(O)ncc2C)ncc1C(F)(F)F [Compound I-364, N-(2-((2-((2-hydroxy-5-methylpyrimidin-4-yl)amino)-5-(trifluoromethyl)pyrimidin-4-yl)amino)-5-methylphenyl)acrylamide] |
| 0.101 to 0.5 µM | 0.101 to 0.5 µM | C=CC(=O)Nc1cc(C)ccc1Nc1nc(Nc2ccnc3ccccc23)ncc1C(F)(F)F [Compound I-379, N-(5-methyl-2-((2-(quinolin-4-ylamino)-5-(trifluoromethyl)pyrimidin-4-yl)amino)phenyl)acrylamide] |
